From US10604487B2, “Pyridinol derivative or pharmaceutically acceptable salt thereof, and pharmaceutical composition containing same as active ingredient” (Research Cooperation Foundation of Yeungnam University, priority 2016, dated 2020)
Read-outs that look alike come from different tables or passages of the source.

Key:
[1] = Cytotoxicity test (MTT), U937; type: cell-based; settings: human, U937, 48 h; for viability at 48 h, 0.01 µM / viability at 48 h, 0.1 µM / viability at 48 h, 1 µM / viability at 48 h, 10 µM / viability at 48 h, 100 µM: U937 cells (monocytic blood cancer-derived cell line), read-out: Cell viability (% of control); for IC50 at 48 h: U937 cells
Description: (§1) The human colorectal cancer cell line HT-29 and the monocytic blood cancer-derived cell line U937 were cultured in a RPMI 1640 medium containing 10% FBS and 1% penicillin/streptomycin (PS) at 37° C. under a condition of 5% CO2, and when the cells used herein were grown to 80% or more, they were subcultured at a ratio of 1:3.
(§2) Each type of cells were cultured in a 96 well plate at a concentration of 1×10^5 cells/cm2, treated with a test compound by concentration in a medium only containing 1% FBS and 1% PS at 37° C. under a condition of 5% CO2 for 48 hours and reacted with 5 mg/mL of a 3-[4,5-dimethylthiazol-2-yl]-2,5-diphenyltetrazolium bromide (MTT) reagent for 4 hours, and then the medium was completely removed, the cells were treated with DMSO, formazan crystals were dissolved for 30 minutes, and then absorbance was measured at 540 nm.

[2] = test system: TNF-α-induced adhesion of monocytes to intestinal epithelial cells; assay: Inhibitory activity against TNF-α-induced adhesion of monocytes (U937) to intestinal epithelial cells (HT-29); type: cell-based, human; settings: for inhibition at 1 µM / IC50: Homo sapiens; for IC50: TNF-α-induced, read-out: IC50 (adhesion inhibition)
Description: HT-29 human colorectal cancer-derived epithelial cells and U937 human-derived monocytic cells were cultured in an RPMI 1640 medium containing 10% FBS and 1% penicillin/streptomycin (PS) at 37° C. under a condition of 5% CO2, and when the cells were grown to 80% or more in a culture flask, they were subcultured in a ratio of 1:3 to be used in this test. The HT-29 cells were cultured in a 24-well plate at a concentration of 2×10^5 cells/cm2, and then the medium only containing 1% FBS and 1% PS was pretreated with a test drug for 1 hour. Afterward, BCECF-loaded U937 cells by being treated with 10 μg/mL of BCECF-AM at 37° C. for 30 minutes and 10 ng/mL of TNF-α reacted with the HT-29 cells previously treated with the test drug at 37° C. for 3 hours. After the reaction, the medium was removed, and then the cells were washed with PBS twice to remove U937 cells that were not adhered. In a subsequent step, for cell lysis, 0.1% Triton X-100 (0.1 M Tris) was treated to allow a reaction at room temperature for 30 minutes, and then fluorescence was measured using a Fluostar optima microplate reader (BMG LABTECH, Germany) to quantify the cells (Carvalho et al., 1996; Thapa et al., 2008).

[3] = Cytotoxicity test (MTT), HT-29; type: cell-based; settings: human, HT-29, 48 h; for viability at 48 h, 0.01 µM / viability at 48 h, 0.1 µM / viability at 48 h, 1 µM / viability at 48 h, 10 µM / viability at 48 h, 100 µM: HT-29 cells (colorectal cancer cell line), read-out: Cell viability (% of control); for IC50 at 48 h: HT-29 cells, read-out: IC50 (μM), cytotoxicity
Description: as §1, §2

TNBS-induced colitis = assay: In vivo efficacy of oral administration in TNBS-induced inflammatory bowel disease model; design: species or system Sprague Dawley rats; settings: rat; for Body weight recovery rate (%) / Bowel weight recovery rate (%): oral, 5 days
Description: 7 to 8-week-old Sprague Dawley rats were purchased from Orient Bio Korea, and after stabilization with typical solid feed for 3 days, were used as animals for the experiment. The animals were freely supplied with feed and water during the experiment, and a cage was maintained at a temperature of 25±1° C. and a relative humidity of 50±10%. Lighting was adjusted to a 12-hour light-dark cycle using an automatic lightening system. In regard to experimental groups, there were 5 groups each consisting of 6 rats having an average weight of 180±10 g (a control group, a group administered TNBS only, a group administered TNBS+300 mg/kg of sulfasalazine, a group administered TNBS+10 mg/kg of GLPG, and a group administered TNBS+1 mg/kg of test drug), which were divided according to a randomized block design.
After rats that had been fasting for 24 hours were anesthetized with diethyl ether, a 1 mL syringe connected with a polyethylene catheter was used to slowly inject 0.8 mL of 5% TNBS diluted with 50v/v % ethanol into the lumen of a colon, and then the rats turned upside down and kept upright for 60 seconds to prevent the leakage of 5% TNBS from the anus. In the control group, only a vehicle [50 v/v % ethanol] was injected in the same manner as in the other groups (Thapa et al., 2008).
To examine a drug effect, for 5 days from the day following the TNBS treatment, a drug was administered at a predetermined time every day.
A change in the body weights of the rats was observed using a digital mass meter from the fasting stage to the end of the TNBS administration and drug administration processes.
The colon of each rat was extracted and tissue 5 to 6 cm from the anus was cut into 1-cm pieces, and then the weight of the tissue was measured.

[4] = 1 μM, Table 8, read-out: 1 μM concentration inhibitory activity
[5] = 1 μM test drug, HT-29/U937 adhesion, 10 ng/mL TNF-α, read-out: Inhibitory activity (%)
[6] = 1 μM test drug, HT-29/U937 adhesion, 10 ng/mL TNF-α

SMILES | viability at 48 h, 0.01 µM [1] | viability at 48 h, 0.1 µM [1] | viability at 48 h, 1 µM [1] | viability at 48 h, 10 µM [1] | viability at 48 h, 100 µM [1] | IC50 at 48 h [1] | viability at 48 h, 0.01 µM [3] | viability at 48 h, 0.1 µM [3] | viability at 48 h, 1 µM [3] | viability at 48 h, 10 µM [3] | viability at 48 h, 100 µM [3] | IC50 at 48 h [3] | Body weight recovery rate (%) (TNBS-induced colitis; 1 mg/kg) | Bowel weight recovery rate (%) (TNBS-induced colitis; 1 mg/kg) | inhibition at 1 µM [2, 5] | also measured
Cc1nc(NC(=O)Nc2ccccc2)c(C)c(C)c1O [Compound 16-2, 1-(5-hydroxy-3,4,6-trimethylpyridin-2-yl)-3-phenylurea] | 89.9 ± 2.6% | 88.9 ± 1.9% | 87.1 ± 2% | 81.7 ± 2% | 78 ± 0.6% | > 100 µM | 103 ± 1.9% | 103 ± 1.6% | 103 ± 3.5% | 93.4 ± 7.2% | 65.2 ± 6.6% | > 100 µM | 69.0% | 81.6% | – | inhibition at 1 µM [2, 4]: 76.3%; IC50 ([2]; HT-29/U937 adhesion): 0.41 µM
Cc1nc(NC(=S)NC(C)C)c(C)c(C)c1O [Compound 18-2, 1-(5-hydroxy-3,4,6-trimethylpyridin-2-yl)-3-isopropylthiourea] | 97 ± 3.5% | 99.4 ± 3.9% | 99.1 ± 1.4% | 90.8 ± 2.2% | 63.6 ± 0.8% | > 100 µM | 87.6 ± 4.8% | 87.3 ± 2.1% | 88.4 ± 4.2% | 87.6 ± 5.3% | 88.6 ± 1.3% | > 100 µM | 72.0% | 81.6% | ≥ 50% | –
Cc1nc(NC(=S)Nc2ccc(Cl)c(Cl)c2)c(C)c(C)c1O [Compound 18-8, 1-(3,4-dichlorophenyl)-3-(5-hydroxy-3,4,6-trimethylpyridin-2-yl)thiourea] | – | – | – | – | – | – | – | – | – | – | – | – | 72.4% | 84.6% | – | Inhibitory activity (%) [2, 6]: 87.2%
Cc1nc(NC(=S)Nc2cccc(C(F)(F)F)c2)c(C)c(C)c1O [Compound 18-9, 1-(5-Hydroxy-3,4,6-trimethylpyridin-2-yl)-3-(3-(trifluoromethyl)phenyl)thiourea] | – | – | – | – | – | – | – | – | – | – | – | – | 74.9% | 87.2% | – | Inhibitory activity (%) [2, 6]: 93.0%
Cc1nc(NC(=S)NC(=O)c2ccccc2)c(C)c(C)c1O [Compound 18-13, N-((5-Hydroxy-3,4,6-trimethylpyridin-2-yl)carbamothioyl)benzamide] | 99.9 ± 1.3% | 96.8 ± 1.8% | 91.7 ± 3.6% | 79 ± 0.8% | 60.6 ± 0.5% | > 100 µM | 78.8 ± 3.3% | 75.4 ± 1.3% | 75.4 ± 4.1% | 57.9 ± 5.8% | 36.4 ± 6.1% | 19.1 µM | 93.8% | 94.9% | ≥ 50% | –
COCCOC(=O)Nc1nc(C)c(O)c(C)c1C [Compound 20-5, 2-methoxyethyl (5-hydroxy-3,4,6-trimethylpyridin-2-yl)carbamate] | 85.4 ± 4.4% | 84.2 ± 4.1% | 81.2 ± 0.7% | 79.9 ± 0.8% | 77.9 ± 0.8% | > 100 µM | 89.7 ± 1.2% | 83.2 ± 2.6% | 84.7 ± 1.6% | 85.5 ± 3.3% | 82.3 ± 1.1% | > 100 µM | – | – | -22.5% | –
Cc1nc(NS(C)(=O)=O)c(C)c(C)c1O [Compound 22-1, N-(5-hydroxy-3,4,6-trimethylpyridin-2-yl)methanesulfonamide] | 97.6 ± 5% | 94.8 ± 3.8% | 95.7 ± 2.4% | 94.4 ± 0.4% | 94.4 ± 2.5% | > 100 µM | 87.6 ± 3.3% | 75.7 ± 8.2% | 76.1 ± 3.6% | 63.5 ± 1.8% | 43 ± 1.9% | 50.1 µM | – | – | 18.7% | –
Cc1ccc(S(=O)(=O)Nc2nc(C)c(O)c(C)c2C)cc1 [Compound 22-2, N-(5-hydroxy-3,4,6-trimethylpyridin-2-yl)-4-methylbenzenesulfonamide] | 96.6 ± 1.6% | 94.5 ± 6.3% | 96.1 ± 3.8% | 90.5 ± 1.7% | 60.9 ± 1.7% | > 100 µM | 77.1 ± 3% | 76.9 ± 4% | 73.8 ± 5.8% | 71.5 ± 4.6% | 62.8 ± 0.5% | > 100 µM | – | – | 42.1% | –
Cc1nc(NS(=O)(=O)c2ccc([N+](=O)[O-])cc2)c(C)c(C)c1O [Compound 22-4, N-(5-hydroxy-3,4,6-trimethylpyridin-2-yl)-4-nitrobenzenesulfonamide] | 95.2 ± 4.6% | 93.3 ± 0.8% | 80.2 ± 11.7% | 84.7 ± 1.7% | 70.6 ± 0.4% | > 100 µM | 96.6 ± 1.3% | 97.8 ± 2.4% | 96.3 ± 1.7% | 85.4 ± 6.7% | 64.8 ± 7.1% | > 100 µM | – | – | -2.3% | –
Cc1nc(NS(=O)(=O)c2cccc3ccccc23)c(C)c(C)c1O [Compound 22-5, N-(5-hydroxy-3,4,6-trimethylpyridin-2-yl)naphthalene-1-sulfonamide] | 102 ± 5.4% | 93.4 ± 1.2% | 92.6 ± 0.9% | 85.1 ± 3.1% | 62.5 ± 2% | > 100 µM | 95.2 ± 3.3% | 86.7 ± 6.5% | 87.8 ± 3.2% | 89.1 ± 3.5% | 88.8 ± 1.2% | > 100 µM | – | – | – | inhibition at 1 µM [2, 4]: 80.6%; IC50 ([2]; HT-29/U937 adhesion): 0.23 µM
O=C(O)c1cc(/N=N/c2ccc(S(=O)(=O)Nc3ccccn3)cc2)ccc1O [Sulfasalazine, reference compound] | – | – | – | – | – | – | – | – | – | – | – | – | – | – | – | Morphology observation of colon (visual symptoms, adhesion between organs, intestinal hyperemia) (TNBS-induced colitis; 300 mg/kg, after 5-day administration): considerably inhibited; Body weight recovery rate (%) (TNBS-induced colitis; 300 mg/kg): 50.5%; Bowel weight recovery rate (%) (TNBS-induced colitis; 300 mg/kg): 69.6%
